Reference: paper PMC12163822, “Synthesis and Pharmacological Characterization of a Novel Cannabinoid Receptor 1 Antagonist” (ACS Omega, 2025)
Where two headings read alike, the source gives them in different places.

What was measured:
[1] = target: cannabinoid receptors; test: [3H]CP55,940 competition binding in rat brain cortex membrane homogenates; design: species or system Sprague-Dawley rat; conditions: for IC50: vs [3H]CP55,940, rat brain cortex membranes
Method: Sprague–Dawley rats (n = 5) were anesthetized and sacrificed by decapitation. Spleens and brains were then quickly removed by dissection at 4 °C, and in the case of the brain tissue, the cortex was dissected for the preparation of the membrane homogenates. For this procedure, spleen and cortex samples were homogenized using a Teflon-glass grinder (15 up-and-down strokes at 800 rpm) in 30 volumes of homogenization buffer (1 mM EGTA, 3 mM MgCl2, 50 mM Tris–HCl; pH 7.4) supplemented with […], at 4 °C. The obtained homogenates were centrifuged for 5 min at 1500 rpm. Pellets were removed, and supernatants were centrifuged again for 15 min at 14,000 rpm. For washing, the obtained pellets were resuspended in a buffer and centrifuged again, and the supernatant was removed. The resulting aliquots were stored at −80 °C until use.
(§1) To stop the reaction, an ice-cold wash buffer (50 mM Tris–HCl and 0.5% BSA, pH 7.4) was added. Then, the membranes were retained by vacuum filtration to a Whatman GF/C glass microfiber filter (Sigma-Aldrich, St. Louis, MO, USA) and the free radioligand was discarded. Filters with the bound radioligand were transferred to vials containing 5 mL of Ultima Gold cocktail (Revvity, Boston, MA, USA) and measured with a Packard Tri-Carb 2200CA liquid scintillation counter (Revvity, Boston, MA, USA).
Data from radioligand affinity assays were analyzed by using nonlinear regression. A comparison of fits was performed for every curve and the preferred model (one site vs two sites) was chosen in each case. Curves were fitted to the pooled data from multiple experiments. For the evaluation of data from autoradiographic assays, the Kruskal–Wallis test followed by Dunn’s post hoc tests for multiple comparisons was performed. For statistical significance, the threshold was set at p = 0.05. The number of replicates or animal sample number used in each case is stated in the figure legends. GraphPad Prism 9 (GraphPad Software) was employed for data analysis and presentation.

[2] = target: T1, CB1 receptor (Rattus norvegicus, UniProt P20272); test: Functional [35S]GTPγS autoradiography in rat brain slices; assay type: biochemical, Sprague-Dawley rat; design: fresh frozen sections from brain samples from wild-type; from tissue; host or cells: Sprague-Dawley rat brain sections; conditions: for [35S]GTPγS binding, Stimulation (% over basal), CP55,940 + UVI3502 / [35S]GTPγS binding, Stimulation (% over basal): rat; for [35S]GTPγS binding, Stimulation (% over basal), CP55,940 + UVI3502: CP55,940 and UVI3502 both at 10 µM; for [35S]GTPγS binding, Stimulation (% over basal): compound alone 10 µM
Method: All brain sections were air-dried for 30 min and then immersed in Coplin jars for preincubation (4 times, 15 min each time) in an HEPES-based buffer (50 mM HEPES, 100 mM NaCl, 3 mM MgCl2, 0.2 mM EGTA, 0.5% BSA; pH 7.4) at 30 °C. The objective of this preincubation was the removal of endogenous ligands. […] Basal [^35S]-GTPγS binding was defined in the absence of the agonists in two consecutive slices. To define nonspecific binding, 10 μM of unlabeled GTPγS was added to the incubation in another section. Following incubation, slices were twice washed in an ice-cold 50 mM HEPES buffer (pH 7.4), dried, and exposed for 48 h to β-radiation sensitive film with a set of [^14C] standards calibrated for [^35S]. Calibrated films were scanned and quantified using Fiji software (Fiji, Bethesda, […], USA). The signal corresponding to nonspecific binding was previously subtracted from the basal and agonist-stimulated binding. Then, the data was expressed as the percentage of stimulation over basal following the formula: ([^35S]-GTPγS agonist-stimulated binding) × 100/([^35S]-GTPγS basal binding)-100.

[3] = target: T2, CB1 receptor (Mus musculus, UniProt P47746); test: [3H]CP55,940 receptor autoradiography in mouse brain slices; assay type: binding, Swiss mice; conditions: for [3H]CP55,940 binding: mouse, 3 nM [3H]CP55,940 in the presence of compound 10 µM
T2 construct: fresh frozen sections from brain samples from wild-type; from tissue; host or cells: Swiss mouse brain sections
Method: (§2) All brain sections were air-dried for 30 min and later immersed in Coplin jars for preincubation in a buffer containing 50 mM Tris–HCl and 1% of BSA (pH 7.4) for 30 min at room temperature. The objective of this preincubation was to remove endogenous ligands. […] Following incubation, tissue slices were washed with an ice-cold preincubation buffer, dipped in distilled water, and dried overnight. To generate autoradiograms, dry sections were placed in hermetically closed cassettes and exposed to β-radiation-sensitive films for 21 days at 4 °C. To calibrate the optical densities to fmol/mg tissue equivalent, [^3H]-microscales were exposed to the films. To quantify the calibrated films after scanning, Fiji software (Bethesda, […], USA) was used.

[4] = target: T1, CB1 receptor; test: [3H]CP55,940 receptor autoradiography in rat brain slices; assay type: binding, Sprague-Dawley rat; design: fresh frozen sections from brain samples from wild-type; from tissue; host or cells: Sprague-Dawley rat brain sections; conditions: for [3H]CP55,940 binding: rat, 3 nM [3H]CP55,940 in the presence of compound 10 µM
Method: as §2

[5] = target: T3, human CB1 receptor (Homo sapiens, UniProt P21554); test: [3H]CP55,940 inhibition curves in membranes from CHO cells overexpressing human CB1; assay type: binding
T3 construct: purchased Sigma-Aldrich; host or cells: CHO cells
Method: Membrane homogenates from CHO cells overexpressing human CB1 and CB2 receptors, as well as matched wild-type cells, were used to test newly synthesized compounds and were acquired from Sigma-Aldrich (St Louis, MO, USA).
as §1
A concentration of 0.02 mg/mL of commercial WT (as control) and CB1 and CB2 overexpressing CHO cells were used, and the same protocol described above was followed. Rat spleen homogenates were also used at a concentration of 0.1 mg/mL as a further characterization of binding to the CB2 receptor, given the high expression of this receptor in this tissue and the practical lack of CB1 in it.

[6] = rat brain slices, 10 µM, result in words
[7] = nucleus basalis magnocellularis

T1 sequence (P20272 whole entry): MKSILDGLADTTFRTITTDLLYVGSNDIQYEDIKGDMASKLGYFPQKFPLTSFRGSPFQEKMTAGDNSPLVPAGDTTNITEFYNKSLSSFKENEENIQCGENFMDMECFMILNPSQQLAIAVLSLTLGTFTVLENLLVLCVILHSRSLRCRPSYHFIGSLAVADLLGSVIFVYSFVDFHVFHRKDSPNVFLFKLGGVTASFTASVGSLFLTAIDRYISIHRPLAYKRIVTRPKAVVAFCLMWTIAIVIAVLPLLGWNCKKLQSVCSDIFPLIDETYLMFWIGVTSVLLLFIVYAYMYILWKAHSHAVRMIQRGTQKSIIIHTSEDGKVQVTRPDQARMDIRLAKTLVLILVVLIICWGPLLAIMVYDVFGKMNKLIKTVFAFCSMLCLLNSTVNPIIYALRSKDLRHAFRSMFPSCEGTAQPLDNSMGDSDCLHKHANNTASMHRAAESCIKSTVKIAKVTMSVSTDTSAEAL
T2 sequence (P47746 whole entry): as the sequence (P20272 whole entry) above, with E95D counted along it
T3 sequence (P21554 whole entry): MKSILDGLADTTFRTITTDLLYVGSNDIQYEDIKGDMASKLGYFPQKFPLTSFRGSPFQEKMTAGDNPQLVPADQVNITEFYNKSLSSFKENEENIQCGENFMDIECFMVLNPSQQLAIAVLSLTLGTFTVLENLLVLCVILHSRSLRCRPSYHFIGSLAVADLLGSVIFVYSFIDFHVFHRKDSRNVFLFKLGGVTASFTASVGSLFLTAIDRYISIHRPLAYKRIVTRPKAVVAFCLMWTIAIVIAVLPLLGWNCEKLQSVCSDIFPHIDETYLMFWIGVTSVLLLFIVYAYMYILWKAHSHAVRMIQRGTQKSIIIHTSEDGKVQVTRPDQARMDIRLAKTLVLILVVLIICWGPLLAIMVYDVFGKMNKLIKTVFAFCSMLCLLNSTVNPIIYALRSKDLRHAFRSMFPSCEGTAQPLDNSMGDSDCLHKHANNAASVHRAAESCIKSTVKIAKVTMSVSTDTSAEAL

With `CCOC(=O)/C=C1\C(=O)Nc2ccc(C)cc2-c2c1c1cc(OC)ccc1n2C(=O)OCC` [UVI3502] the IC50 ([1]; high-affinity site of two-site fit, read-out: IC50Hi) was 0.026 nM, the IC50 ([1]; low-affinity site of two-site fit, read-out: IC50Lo) was 772 ± 49.4 nM and the “inhibition of [3H]CP55,940 binding corresponding to the high-affinity binding site” value ([1]; rat cortex membranes) was “approximately 18%”. The “inhibition of [3H]CP55,940 binding corresponding to the low-affinity binding site” value ([1]; rat cortex membranes) was about 40%, the “total inhibition of [3H]CP55,940 binding” value ([1]; rat cortex membranes) was “about 58%” and the “affinity for cannabinoid receptors (inhibition of [3H]CP55,940 binding)” value ([1]; rat cortex membranes, result in words) was “showed affinity for cannabinoid receptors”. The “activity on CP55,940-evoked [35S]GTPγS stimulation” value [2, 6] was “acts as an antagonist”, the “[35S]GTPγS binding, Stimulation (% over basal), CP55,940 + UVI3502” value ([2]; amygdala) was -47 ± 30 % over basal and the “[35S]GTPγS binding, Stimulation (% over basal)” value ([2]; amygdala) was -35 ± 19 % over basal. The “[35S]GTPγS binding, Stimulation (% over basal), CP55,940 + UVI3502” value ([2]; cerebellum (gray matter)) was -46 ± 31 % over basal, the “[35S]GTPγS binding, Stimulation (% over basal)” value ([2]; cerebellum (gray matter)) was -16 ± 51 % over basal and the “[35S]GTPγS binding, Stimulation (% over basal), CP55,940 + UVI3502” value ([2]; cortex) was -60 ± 10 % over basal. The “[35S]GTPγS binding, Stimulation (% over basal)” value ([2]; cortex) was -45 ± 24 % over basal, the “[35S]GTPγS binding, Stimulation (% over basal), CP55,940 + UVI3502” value ([2]; globus pallidus) was 89 ± 42 % over basal and the “[35S]GTPγS binding, Stimulation (% over basal)” value ([2]; globus pallidus) was -3 ± 46 % over basal. For the same compound, the “[35S]GTPγS binding, Stimulation (% over basal), CP55,940 + UVI3502” value ([2]; hippocampus dorsal) was -62 ± 6 % over basal, the “[35S]GTPγS binding, Stimulation (% over basal)” value ([2]; hippocampus dorsal) was -40 ± 26 % over basal and the “[35S]GTPγS binding, Stimulation (% over basal), CP55,940 + UVI3502” value [2, 7] was -40 ± 11 % over basal. The “[35S]GTPγS binding, Stimulation (% over basal)” value [2, 7] was -35 ± 30 % over basal, the “[35S]GTPγS binding, Stimulation (% over basal), CP55,940 + UVI3502” value ([2]; striatum) was -54 ± 23 % over basal and the “[35S]GTPγS binding, Stimulation (% over basal)” value ([2]; striatum) was -34 ± 25 % over basal. For the same compound, the “[35S]GTPγS binding, Stimulation (% over basal), CP55,940 + UVI3502” value ([2]; substantia nigra) was 14 ± 80 % over basal, the “[35S]GTPγS binding, Stimulation (% over basal)” value ([2]; substantia nigra) was -41 ± 24 % over basal and the “inhibition of [3H]CP55,940 binding in brain areas” value ([3]; mouse brain slices, 10 µM, result in words) was “partially inhibit”. The “[3H]CP55,940 binding” value ([3]; amygdala) was 154 ± 8 fmol/mg t.e, the “[3H]CP55,940 binding” value ([3]; cerebellum (gray matter)) was 409 ± 207 fmol/mg t.e and the “[3H]CP55,940 binding” value ([3]; cortex) was 118 ± 18 fmol/mg t.e. The “[3H]CP55,940 binding” value ([3]; globus pallidus) was 698 ± 16 fmol/mg t.e, the “[3H]CP55,940 binding” value ([3]; hippocampus dorsal) was 181 ± 9 fmol/mg t.e and the “[3H]CP55,940 binding” value [3, 7] was 202 ± 19 fmol/mg t.e. For the same compound, the “[3H]CP55,940 binding” value ([3]; striatum) was 159 ± 11 fmol/mg t.e, the “[3H]CP55,940 binding” value ([3]; substantia nigra) was 1075 ± 22 fmol/mg t.e and the “inhibition of [3H]CP55,940 binding in brain areas” value [4, 6] was “partially inhibit”. The “[3H]CP55,940 binding” value ([4]; amygdala) was 136 ± 52 fmol/mg t.e, the “[3H]CP55,940 binding” value ([4]; cerebellum (gray matter)) was 421 ± 126 fmol/mg t.e and the “[3H]CP55,940 binding” value ([4]; cortex) was 122 ± 25 fmol/mg t.e. For the same compound, the “[3H]CP55,940 binding” value ([4]; globus pallidus) was 572 ± 40 fmol/mg t.e, the “[3H]CP55,940 binding” value ([4]; hippocampus dorsal) was 184 ± 26 fmol/mg t.e and the “[3H]CP55,940 binding” value [4, 7] was 147 ± 18 fmol/mg t.e. The “[3H]CP55,940 binding” value ([4]; striatum) was 291 ± 18 fmol/mg t.e, the “[3H]CP55,940 binding” value ([4]; substantia nigra) was 1364 ± 581 fmol/mg t.e and the IC50 [5] was 4640 ± 1600 nM. For the same compound, the “total inhibition of [3H]CP55,940 binding” value ([5]; CB1 overexpressing CHO membranes) was “approximately 38%”.
